Laboratory results from patent US10525088B2, “Lactic acid bacterial immunopotentiating activity-increasing composition and method for increasing immunopotentiating activity of lactic acid bacteria” (Kirin Holdings Kabushiki Kaisha, priority 2014, dated 2020).

Test system: dendritic cells induced from myeloblasts
Assay: Interferon-α production by dendritic cells induced from mouse myeloblasts (Flt-3L), cultured with JCM5805 and sample
Format: cell-based, mice
Details: 0.1 (w/v) % JCM5805 + 0.25 (w/v) % sample; myeloblast-derived dendritic cells; 24 hours
Method: Medium was inoculated with 1 ml of the obtained cell suspension and the culture was incubated at 37° C., 5% CO2 in a CO2 incubator for 1 week to induce dendritic cells. […] The samples were the lactic acid bacteria only, sucrose palmitate, and Ryoto Sugar Ester […] (mainly containing sucrose palmitate) (Mitsubishi-Kagaku Foods Corporation).

sucrose palmitate
change of interferon-α inducing activity of JCM5805 by the sample: increased
